The text below walks through data of patent US10125356B2, “Enzymatic methods and enzymes” (Givaudan SA, priority 2007, dated 2018).

One assay has as its system C. sp. Ax 20 extract. Nature of the assay: Cleavage of conjugates by Corynebacterium sp. Ax20 cellular extract, release of 3-sulfanyl-3-methyl-hexanol by gas chromatography. The following applies: conjugate 1 mM incubated with C. sp. Ax 20 extract for 24 h. The assay is classed as biochemical. As for the experimental part: The test compounds (cys-conjugate (1 mM) or cys-gly-conjugate (1 mM)) were incubated also with the wild-type strain Corynebacterium sp. Ax20 extract naturally containing the peptidase of SEQ ID NO:2. Corynebacterium sp. Ax20 cellular extract was prepared as described in example 1. The resulting extract was diluted to the same volume as the original culture has had when adjusted to an optical density of OD 4. The substrate was incubated with the extract for 24 h.
(§1) Cleavage was measured by gas chromatography to determine the release of 3-sulfanyl-3-methyl-hexanol in mM.

Assay [1] relates to K411 peptidase (SEQ ID NO: 4). Put plainly: Release of 3-sulfanyl-3-methyl-hexanol from cys-gly-conjugate by clear lysate of recombinant E. coli expressing K411 peptidase, monobromobimane fluorescence test. The format is biochemical, Corynebacterium jeikeium K411. The following applies: conjugate 1 mM. As for the experimental part: (§2) Samples of each fraction were incubated both with the β-lyase and with the cys-gly-conjugate at the same time, and the release of 3-sulfanyl-3-methyl-hexanol was determined by a fluorescence test specific for free SH groups: To this end the enzyme reaction was stopped by adding 0.5 volumes of NaCO3-buffer (0.1 M, pH 8.8) containing 0.5 mM monobromobimane, thus derivatising the free thiol-group. Fluorescence was then measured on a Flex-station (Molecular devices, Sunnyvale, Calif., USA) with an excitation wavelength of 385 nm and an emission wavelength of 480 nm.
(§3) 50 ml of recombinant E. coli culture formed as described in example 3 and 4 was harvested, resuspended in a final volume of 3 ml of phosphate buffer and then disrupted with ultrasonication. The soluble extract was cleared by centrifugation. Different dilutions of the resulting extract were incubated with the cys-gly-conjugate (1 mM) and in presence as well as in absence of an excess of the β-lyase. As a negative control, clear cell lysate from E. coli transformed with an empty vector, and cell lysates with the cys-gly-conjugate but no β-lyase were used.

The test system of the next assay is Ax20 peptidase. Nature of the assay: Substrate specificity of recombinant Ax20 peptidase, cleavage by thin layer chromatography. To be noted: 1 mM solution, 0.1 or 1 μg/ml peptidase, incubation 1 h. The assay is classed as biochemical, Corynebacterium sp. Ax20. As for the experimental part: The recombinant Ax20 peptidase formed as described in example 3 (affinity column purified tagged enzyme) was incubated with different compounds, in particular potential candidate dipeptide substrates, to characterize the substrate specificity and to identify substrates useful for screening assays (for example to screen for modulators including inhibitors).
The table below lists the tested compounds (mostly dipeptides indicated by their short names, e.g. ala-gly for an alanine-glycine dipeptide) and indicates whether they are cleaved by the peptidase. Z indicates a benzyloxy-carbonyl protecting group at the N-terminus of the peptide.
Cleavage was determined by thin layer chromatography.
Amounts are qualitative with (+++) indicating >80% cleavage of a 1 mM solution by 0.1 μg/ml peptidase during an incubation for 1 h; (++) indicates complete cleavage of a 1 mM solution by 1 μg/ml peptidase during an incubation for 1 h and (+) indicates partial cleavage (20-80%) of a 1 mM solution by 1 μg/ml peptidase during an incubation for 1 h and (−) indicating the absence of any cleavage.

The target of a further assay is T1, β-lyase (Corynebacterium striatum, UniProt Q64HC5).
T1 construct: made in house
Nature of the assay: Cleavage of conjugates by β-lyase, release of 3-sulfanyl-3-methyl-hexanol by gas chromatography. The assay is classed as biochemical, Corynebacterium sp. Ax20. To be noted: conjugate 1 mM incubated with β-lyase. As for the experimental part:
The test compounds (Cys-conjugate (1 mM) or Cys-Gly-conjugate (1 mM)) were incubated with β-lyase.
as §1

The subject of assay [2] is Ax20 peptidase (SEQ ID NO: 2). Nature of the assay: Release of 3-sulfanyl-3-methyl-hexanol from cys-gly-conjugate by clear lysate of recombinant E. coli expressing Ax20 peptidase, monobromobimane fluorescence test. The format is biochemical, Corynebacterium sp. Ax20. To be noted: conjugate 1 mM. As for the experimental part:
as §2, §3

T1 sequence (Q64HC5 whole entry): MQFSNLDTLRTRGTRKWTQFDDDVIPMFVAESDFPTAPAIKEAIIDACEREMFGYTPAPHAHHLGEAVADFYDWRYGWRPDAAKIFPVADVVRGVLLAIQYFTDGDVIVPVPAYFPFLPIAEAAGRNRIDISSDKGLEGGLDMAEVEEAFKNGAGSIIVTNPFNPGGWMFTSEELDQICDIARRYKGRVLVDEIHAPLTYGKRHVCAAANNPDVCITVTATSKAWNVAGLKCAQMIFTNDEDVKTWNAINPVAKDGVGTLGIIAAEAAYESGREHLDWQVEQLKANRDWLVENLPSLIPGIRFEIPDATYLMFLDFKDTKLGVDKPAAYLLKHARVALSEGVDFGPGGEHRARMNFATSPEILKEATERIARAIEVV

`CCCC(C)(CCO)SC[C@H](N)C(=O)NCC(=O)O` (stereo in doubt) [Cys-gly-conjugate, (1-(2-hydroxyethyl)-1-methylbutyl)-L-cysteinyl-glycine]: the “release of 3-sulfanyl-3-methyl-hexanol from the conjugate” value in the assay with C. sp. Ax 20 extract is 0.21 mM; at β-lyase it was less than 0.03 mM. In addition, the “release of 3-sulfanyl-3-methyl-hexanol from the Cys-Gly-conjugate” value (shortened to “release … from the Cys-Gly-conjugate”) in assay [1] (K411 peptidase + β-lyase, clear cell lysate diluted 10 fold) was 0.55 mM; in assay [1] (K411 peptidase + β-lyase, clear cell lysate diluted 100 fold), 0.19 mM; in assay [1] (K411 peptidase + β-lyase, clear cell lysate diluted 1000 fold), 0.03 mM; in assay [1] (K411 peptidase w/o β-lyase, clear cell lysate diluted 10 fold) it was 0.10 mM; in assay [1] (K411 peptidase w/o β-lyase, clear cell lysate diluted 100 fold), less than 0.01 mM; in assay [1] (K411 peptidase w/o β-lyase, clear cell lysate diluted 1000 fold), less than 0.01 mM. Moreover, the “release … from the Cys-Gly-conjugate” value in assay [2] (Ax20 peptidase + β-lyase, clear cell lysate diluted 10 fold) is reported as 1.00 mM; in assay [2] (Ax20 peptidase + β-lyase, clear cell lysate diluted 100 fold), 0.92 mM; in assay [2] (Ax20 peptidase + β-lyase, clear cell lysate diluted 1000 fold), 0.46 mM; in assay [2] (Ax20 peptidase w/o β-lyase, clear cell lysate diluted 10 fold), 0.10 mM; in assay [2] (Ax20 peptidase w/o β-lyase, clear cell lysate diluted 100 fold) it was less than 0.01 mM; in assay [2] (Ax20 peptidase w/o β-lyase, clear cell lysate diluted 1000 fold), less than 0.01 mM. Besides, the “release … from the Cys-Gly-conjugate” value in assay [2] (Ax20 peptidase with histidine tag + β-lyase, clear cell lysate diluted 10 fold) is listed as 0.94 mM; in assay [2] (Ax20 peptidase with histidine tag + β-lyase, clear cell lysate diluted 100 fold), 0.88 mM; in assay [2] (Ax20 peptidase with histidine tag + β-lyase, clear cell lysate diluted 1000 fold), 0.36 mM. Further, in the assay with Ax20 peptidase, the Cleavage entry is “+++ ((+++) indicating >80% cleavage of a 1 mM solution by 0.1 μg/ml peptidase during an incubation for 1 h)”.
